Read-outs that look alike come from different tables or passages of the source. Where only a bound is given, the exact number is not on record here.

A short description of series [1]: Pharmacological features (bioavailability, metabolism). The conditions noted are these: in vivo.
Another series deals with T1, lactase (Rattus norvegicus, UniProt Q02401).
T1 construct: Membrane homogenates were prepared by extensive washing and homogenization; from tissue; host or cells: rat intestinal membrane homogenate
T1 sequence (Q02401 868-1928): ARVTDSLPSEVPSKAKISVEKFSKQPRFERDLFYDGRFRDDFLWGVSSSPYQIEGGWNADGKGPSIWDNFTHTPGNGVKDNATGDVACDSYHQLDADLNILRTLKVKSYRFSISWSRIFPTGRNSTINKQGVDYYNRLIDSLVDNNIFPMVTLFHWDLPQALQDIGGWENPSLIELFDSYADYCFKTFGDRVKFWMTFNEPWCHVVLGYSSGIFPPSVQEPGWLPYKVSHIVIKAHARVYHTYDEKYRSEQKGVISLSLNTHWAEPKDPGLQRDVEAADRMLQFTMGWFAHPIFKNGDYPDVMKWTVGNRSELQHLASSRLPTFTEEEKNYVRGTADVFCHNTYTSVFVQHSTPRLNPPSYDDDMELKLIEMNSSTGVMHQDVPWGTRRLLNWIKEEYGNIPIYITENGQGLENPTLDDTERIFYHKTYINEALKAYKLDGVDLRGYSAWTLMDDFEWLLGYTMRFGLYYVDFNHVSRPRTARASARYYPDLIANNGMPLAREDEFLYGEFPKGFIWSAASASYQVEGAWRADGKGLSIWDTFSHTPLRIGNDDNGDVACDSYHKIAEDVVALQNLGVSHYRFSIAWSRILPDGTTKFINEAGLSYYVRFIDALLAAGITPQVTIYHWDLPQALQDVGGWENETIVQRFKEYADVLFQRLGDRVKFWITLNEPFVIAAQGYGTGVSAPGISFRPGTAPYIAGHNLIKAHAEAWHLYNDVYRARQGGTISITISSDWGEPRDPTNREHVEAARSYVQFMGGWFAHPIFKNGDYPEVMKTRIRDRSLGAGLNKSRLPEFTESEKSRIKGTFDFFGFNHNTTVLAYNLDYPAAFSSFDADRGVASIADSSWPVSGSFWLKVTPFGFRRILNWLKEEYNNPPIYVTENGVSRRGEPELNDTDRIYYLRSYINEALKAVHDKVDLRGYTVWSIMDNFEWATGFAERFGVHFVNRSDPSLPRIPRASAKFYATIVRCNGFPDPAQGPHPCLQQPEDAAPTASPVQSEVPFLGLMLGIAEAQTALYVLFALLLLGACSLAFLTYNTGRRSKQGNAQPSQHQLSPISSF
Kind of series: In vitro lactase activity, intestinal membrane preparation. The conditions noted are these: rat intestinal membranes; read-out: IC50 value for inhibition of Lactase. The format is biochemical.

Series [2] concerns C57BL/6J mice (ob-/-, db-/-, +/+). Kind of series: Oral treatment of obese, diabetes and normal C57BL/6J mice: glucose and water intake. In kind it is in vivo. As for the experimental part:
Plasma glucose, water intake and food intake were monitored.
Mice (obese-lep^ob (C57B1/6)laHsd-Lep^ob); diabetes-lepr^db (C57B1/6KsOlaHsd—Lepr^db); wildtype (C57B1/6J OlaHsd) and wild type FVB (FVB/NHanHsd) were obtained from Harlan Nederland. Animals were fed with AM-II diet with or without N-(5-adamantane-1-yl-methoxy-pentyl)deoxynojirimycin (Hope Farms Netherlands). Mice were kept in groups of five in each cage. Water consumption and food intake were determined three times weekly per cage. Body weight of individual animals was determined three times weekly. Glucose in plasma was determined with the GOD-PAP method (Merck), and glucose in urine was determined using […] test strips (Roche).

The next series deals with surface GM3. Kind of series: Surface GM3 expression by FACS after 3 days exposure of cells. In kind it is cell-based. The conditions noted are these: 72 h, cells exposed for 3 days, read-out: IC50 value for surface GM3 reduction. (Flow cytometry measures light scatter and fluorescence of single cells or particles in a stream.)
Series [3] is described as follows: Plasma level and tissue penetration after oral dosing. In kind it is in vivo, mice.
Another series has as its system FVB and C57BL/6J mice. Briefly: Tissue (glyco)sphingolipid levels in orally treated FVB and C57BL/6J mice (HPLC, TLC).
The target of a further series is T2, sucrase (Rattus norvegicus, UniProt P23739).
T2 construct: Membrane homogenates were prepared by extensive washing and homogenization; from tissue; host or cells: rat intestinal membrane homogenate
T2 sequence (P23739 1014-1841 limits assumed): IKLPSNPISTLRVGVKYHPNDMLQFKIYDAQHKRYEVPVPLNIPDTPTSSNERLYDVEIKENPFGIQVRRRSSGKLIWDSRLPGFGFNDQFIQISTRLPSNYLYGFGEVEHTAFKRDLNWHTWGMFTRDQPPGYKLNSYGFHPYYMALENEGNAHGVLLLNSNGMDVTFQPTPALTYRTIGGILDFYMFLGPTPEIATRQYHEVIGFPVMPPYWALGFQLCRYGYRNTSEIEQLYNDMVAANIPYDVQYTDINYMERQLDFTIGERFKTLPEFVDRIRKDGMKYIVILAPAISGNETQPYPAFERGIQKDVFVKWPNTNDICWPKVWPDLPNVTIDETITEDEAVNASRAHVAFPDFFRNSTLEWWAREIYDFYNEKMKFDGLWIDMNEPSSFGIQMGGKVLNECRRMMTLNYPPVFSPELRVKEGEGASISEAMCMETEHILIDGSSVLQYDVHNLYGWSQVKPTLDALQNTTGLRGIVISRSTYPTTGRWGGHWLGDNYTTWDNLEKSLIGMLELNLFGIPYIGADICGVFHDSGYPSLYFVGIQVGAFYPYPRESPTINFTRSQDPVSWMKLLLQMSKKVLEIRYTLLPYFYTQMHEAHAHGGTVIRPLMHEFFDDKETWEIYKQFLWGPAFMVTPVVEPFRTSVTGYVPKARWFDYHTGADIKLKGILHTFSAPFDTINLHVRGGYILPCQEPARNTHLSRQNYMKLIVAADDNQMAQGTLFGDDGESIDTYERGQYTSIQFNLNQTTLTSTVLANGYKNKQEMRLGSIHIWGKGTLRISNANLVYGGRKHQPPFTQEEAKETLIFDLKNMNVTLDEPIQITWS
T2 sequence (P23739 1-1013 partner limits assumed): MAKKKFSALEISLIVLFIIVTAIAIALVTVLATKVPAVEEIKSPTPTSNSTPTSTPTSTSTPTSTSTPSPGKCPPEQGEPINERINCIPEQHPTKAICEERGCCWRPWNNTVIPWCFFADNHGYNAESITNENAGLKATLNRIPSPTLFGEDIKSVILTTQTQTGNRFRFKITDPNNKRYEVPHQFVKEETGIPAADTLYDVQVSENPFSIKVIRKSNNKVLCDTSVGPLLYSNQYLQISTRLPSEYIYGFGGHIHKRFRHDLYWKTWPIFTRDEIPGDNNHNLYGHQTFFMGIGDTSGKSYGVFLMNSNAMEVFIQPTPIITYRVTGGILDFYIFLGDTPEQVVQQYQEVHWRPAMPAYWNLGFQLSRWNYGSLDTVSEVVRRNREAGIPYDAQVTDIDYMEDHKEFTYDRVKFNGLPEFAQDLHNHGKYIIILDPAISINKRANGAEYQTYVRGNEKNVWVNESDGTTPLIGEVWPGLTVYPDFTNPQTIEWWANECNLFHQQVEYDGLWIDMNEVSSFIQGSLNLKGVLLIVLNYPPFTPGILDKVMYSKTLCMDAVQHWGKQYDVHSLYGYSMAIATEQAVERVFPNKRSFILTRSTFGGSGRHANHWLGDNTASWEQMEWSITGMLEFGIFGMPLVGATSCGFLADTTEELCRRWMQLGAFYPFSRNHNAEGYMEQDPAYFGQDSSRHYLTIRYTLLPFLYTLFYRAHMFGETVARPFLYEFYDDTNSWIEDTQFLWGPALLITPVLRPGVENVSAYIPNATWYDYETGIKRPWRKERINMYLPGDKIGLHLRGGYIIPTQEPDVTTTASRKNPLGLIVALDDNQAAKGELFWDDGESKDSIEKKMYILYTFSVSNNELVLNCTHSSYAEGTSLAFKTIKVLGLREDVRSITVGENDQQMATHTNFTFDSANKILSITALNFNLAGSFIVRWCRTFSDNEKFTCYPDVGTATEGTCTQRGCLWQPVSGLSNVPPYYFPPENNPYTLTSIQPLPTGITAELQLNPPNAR
Briefly: In vitro sucrase activity, intestinal membrane preparation. In kind it is biochemical.

For series [4], the system named is cultured adipocytes and muscle cells. Kind of series: Insulin signaling in cultured adipocytes and muscle cells (GLUT4, deoxyglucose uptake). The format is cell-based. The source says: Initial experiments already confirmed this effect.
The nature of series [5]: Tolerability in animal studies. In kind it is in vivo.
For the next series, the target named is T3, debranching enzyme (Homo sapiens, UniProt P35573).
T3 construct: As enzyme source erythrocytes are used since they contain no other enzymes that can degrade glycogen or limit dextrin; from tissue; host or cells: erythrocyte homogenate
T3 sequence (P35573 whole entry): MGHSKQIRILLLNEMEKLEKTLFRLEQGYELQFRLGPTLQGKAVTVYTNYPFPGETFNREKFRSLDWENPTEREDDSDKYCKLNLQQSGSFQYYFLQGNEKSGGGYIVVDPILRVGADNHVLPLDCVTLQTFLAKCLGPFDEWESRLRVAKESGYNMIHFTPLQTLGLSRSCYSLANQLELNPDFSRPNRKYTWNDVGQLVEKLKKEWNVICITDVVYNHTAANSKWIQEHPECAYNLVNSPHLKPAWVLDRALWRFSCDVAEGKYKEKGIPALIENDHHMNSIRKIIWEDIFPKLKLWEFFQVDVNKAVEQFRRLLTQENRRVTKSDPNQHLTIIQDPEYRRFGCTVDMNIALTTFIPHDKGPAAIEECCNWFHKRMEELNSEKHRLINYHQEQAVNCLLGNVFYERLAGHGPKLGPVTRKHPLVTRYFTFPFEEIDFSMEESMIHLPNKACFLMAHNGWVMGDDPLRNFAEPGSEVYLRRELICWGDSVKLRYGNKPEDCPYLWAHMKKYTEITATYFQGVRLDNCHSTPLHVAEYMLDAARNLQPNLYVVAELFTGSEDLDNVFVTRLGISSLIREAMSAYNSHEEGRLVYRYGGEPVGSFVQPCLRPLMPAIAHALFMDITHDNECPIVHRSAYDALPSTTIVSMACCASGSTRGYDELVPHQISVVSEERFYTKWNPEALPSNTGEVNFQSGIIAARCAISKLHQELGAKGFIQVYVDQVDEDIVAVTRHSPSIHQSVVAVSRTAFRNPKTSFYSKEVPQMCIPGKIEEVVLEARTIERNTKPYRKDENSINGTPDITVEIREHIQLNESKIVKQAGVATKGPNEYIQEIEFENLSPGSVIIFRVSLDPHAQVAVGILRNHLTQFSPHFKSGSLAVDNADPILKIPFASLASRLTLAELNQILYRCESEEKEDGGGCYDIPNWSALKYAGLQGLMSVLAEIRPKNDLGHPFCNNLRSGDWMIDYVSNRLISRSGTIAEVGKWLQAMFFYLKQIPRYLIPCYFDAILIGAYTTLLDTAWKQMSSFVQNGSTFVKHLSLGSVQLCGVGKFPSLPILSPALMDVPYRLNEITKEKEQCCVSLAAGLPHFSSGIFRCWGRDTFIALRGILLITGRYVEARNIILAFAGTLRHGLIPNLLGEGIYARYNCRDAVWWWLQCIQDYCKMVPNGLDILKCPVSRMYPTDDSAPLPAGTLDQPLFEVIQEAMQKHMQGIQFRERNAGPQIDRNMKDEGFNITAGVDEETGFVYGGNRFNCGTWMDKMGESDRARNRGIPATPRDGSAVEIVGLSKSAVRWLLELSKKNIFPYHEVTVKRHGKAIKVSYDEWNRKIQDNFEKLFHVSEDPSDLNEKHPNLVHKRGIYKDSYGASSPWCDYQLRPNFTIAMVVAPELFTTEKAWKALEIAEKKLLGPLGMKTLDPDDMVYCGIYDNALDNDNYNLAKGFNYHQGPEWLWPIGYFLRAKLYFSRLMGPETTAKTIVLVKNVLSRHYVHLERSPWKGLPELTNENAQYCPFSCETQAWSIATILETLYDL
Kind of series: Debranching enzyme activity, glucose release from limit dextrin, erythrocyte homogenate. The format is biochemical. The conditions noted are these: read-out: IC50 value for inhibition of Debranching enzyme.

For series [6] the following is noted: many individuals; cited from earlier work.
For series [7], the target named is glycan trimming α-glucosidase. The conditions noted are these: cited from earlier work.
The mark [8] stands for this setting: obese and diabetes mice, administration by food, dose-dependent.
[9] abbreviates: intestinal sucrase, read-out: IC50 value for sucrase.
[10] abbreviates: rat intestinal membranes, read-out: IC50 value for inhibition of Sucrase.

`OC[C@@H]1[C@@H](O)[C@H](O)[C@@H](O)CN1CCCCCOCC12CC3CC(CC(C3)C1)C2` [AMP-DNM, N-(5-adamantane-1-yl-methoxy-pentyl)deoxynojirimycin]: in [1], the metabolism result is “lack of metabolism”. Besides, the oral bioavailability entry in series [1] (po) was “good oral bioavailability”. The IC50 – broadly, the concentration that gives 50% inhibition – at lactase was 18000 µM; with surface GM3, around 0.25 µM; on sucrase (setting [9]), 4500 µM; at debranching enzyme, above 500 µM. Besides, in [2] (after 2 weeks treatment, particularly ob-/ob- mice at highest dose), the urinary glucose result is on record as “major reduction”. Further, the blood glucose result is given as “small reduction” in series [2] (normal mice) and “reductions” in series [2] (setting [8]). Also, the water intake entry in series [2] (setting [8]) is reported as “reductions”. Besides, in series [3] (mouse, plasma, oral, 4 weeks 100 mg/kg orally, enzymatic method, read-out: plasma levels), the concentration at 4 weeks is around 1000 nM. The brain penetration entry in [3] (oral administration) was “poorly penetrates in the brain”. Further, in the series with FVB and C57BL/6J mice (TLC, brain), the “brain gangliosides or sulfatide” value is “No changes”. Moreover, the “liver GM3” value in the series with FVB and C57BL/6J mice (TLC, liver, 2 wks 100 mg/kg) is given as “marked reduction”. Besides, the “muscle GM3” value in the series with FVB and C57BL/6J mice (TLC, muscle) is recorded as “reduction”. Besides, in the series with FVB and C57BL/6J mice (brain, 100 mg/kg oral), the brain galactosylceramide concentration result is reported as “No changes”. In the series with FVB and C57BL/6J mice (liver, 100 mg/kg oral), the “liver glucosylceramide reduced by” value came out at 80%. In addition, in the series with FVB and C57BL/6J mice (liver, muscle and brain, 100 mg/kg oral), the ceramide concentration entry is recorded as “No changes”. Further, the “muscle glucosylceramide reduced by” value in the series on FVB and C57BL/6J mice (muscle, 100 mg/kg oral) amounted to 50%. Further, the “surface expression of GLUT4” value in series [4] (adipocytes) is “increased”. Also, the deoxyglucose uptake entry in series [4] (cultured adipocytes and muscle cells) was “increased”. In series [5], the “overt pathology in animal studies” value is listed as “does not result in any overt pathology”. Also, the “tolerability in animal studies” value in [5] was “well tolerated”.
In the case of `C[C@H]1O[C@H](O[C@H]2[C@H](O)[C@@H](O)[C@@H](O[C@H]3[C@H](O)[C@@H](O)C(O)O[C@@H]3CO)O[C@@H]2CO)[C@H](O)[C@@H](O)[C@@H]1N[C@H]1C=C(CO)[C@@H](O)[C@H](O)[C@H]1O` (some centres unmarked) [Acarbose], the “tolerability (intestinal complaints)” value in [6] is “not very well tolerated”.
For the compound `CCCCN1C[C@H](O)[C@@H](O)[C@H](O)[C@H]1CO` [N-butyl-deoxynojirimycin], on sucrase (setting [10]), the half-inhibitory concentration (IC50) is 500 µM. Further, in series [7], the “Ki glycan trimming α-glucosidase in vitro” value was “sub-μM”.
Take `OCCN1C[C@H](O)[C@@H](O)[C@H](O)[C@H]1CO` [N-hydroxyethyl-deoxynojirimycin]: the concentration for half-maximal inhibition (IC50) is below 5000 µM at sucrase (setting [9]) and 100 µM at sucrase (setting [10]). Besides, the “tolerability (intestinal complaints)” value in [6] was “not very well tolerated”.

The values above are taken from patent publication US7662838B2, “Use of a deoxynojirimycin derivative or a pharmaceutically salt thereof” (Genzyme Corporation, priority 2003, dated 2010).
